According to US20210205260A1, “MP53 RESCUE COMPONDS AND METHODS OF TREATING A P53 DISORDER” (priority 2018, published 2021):

Key:
mp53 [1] = test: PAb1620 immunoprecipitation, structural rescuability of indicated mp53s (with/without ATO); assay type: cell-based, human; conditions: for Str. Res. (whether the mp53 is structurally rescuable): Table 8, label = mp53 mutation, rescue agent ATO; for Str. Res: Table 9, structurally rescuable by PANDA Agent ATO, label = mp53; for 1620 TP (PAb1620 immunoprecipitation efficiency): presence vs absence of ATO, cell line not indicated in this part of Table 9
Description: (§1) For p53 folding assay, H1299 cells transfected with indicated TP53 were treated with 1 μg/ml ATO for 2 hr, and cells were lysed followed by immunoprecipitation using PAb1620. Immunoprecipitated p53 was immunoblotted. Experiments are repeated twice. For p53 transcriptional activity assay, H1299 cells were co-transfected with indicated TP53 and PUMA reporter for 24 hr, followed by treatment of 1 μg/ml ATO for 24 hr. […] X-axis: PAb1620 IP efficiency; Y-axis: PUMA luciferase report signal. Hollow cycles: without ATO treatment; solid cycles: with ATO treatment.
NP40 buffer at room temperature.

mp53 [2] = test: mp53 rescue profile (either structurally or functionally rescuable); assay type: cell-based, human; conditions: Table 8; label = mp53 mutation; rescue agent ATO
mp53 [3] = test: Functional rescuability of indicated mp53s (Luciferase, qPCR and/or Western blot); assay type: cell-based, human; conditions: for Func. Res. (whether the mp53 is functionally rescuable): Table 8, label = mp53 mutation, rescue agent ATO; for Func. Res: Table 9, functionally rescuable by PANDA Agent ATO, label = mp53
Description: as §1
Cells were plated at a concentration of 2×10^4 cells/well in 24-well plates, followed by transfection of luciferase reporter plasmids for 24 hr. All transfection contained 300 ng p53 expressing plasmid, 100 ng of luciferase reporter plasmid and 5 ng of renilla plasmid per well. After agent treatment, cells were lysed in luciferase reporter assay buffer and determined using a luciferase assay kit (Promega). Activities of luciferase were divided by that of renilla to normalize the transfection efficiency.
Total RNA was isolated from cells using Total RNA Purification Kit (B518651, Sangon Biotech). 1 μg total RNA was reverse-transcribed using the GoScript®™ Reverse Transcriptase System (A5001, Promega) following manufacturer's protocol. PCR was performed in triplicate using SYBR green mix (Applied Biosystems), and a ViiA™ 7 Real-Time PCR System (Applied Biosystems) under the following conditions: 10 min at 95° C. followed by 40 cycles of 95° C. for 15 s and 60° C. for 1 min. Specificity of the PCR product was checked for each primer set and samples from the melting curve analysis. Expression levels of targeted genes were normalized relative to levels of β-actin adopting comparative Ct method. The primer sequences are as follows: MDM2 forward 5′-[…]-3′, reverse 5′-[…]-3′; PIG3 forward 5′-[…]-3′, reverse 5′-[…]-3′; PUMA forward 5′-[…]-3′, reverse 5′-[…]-3′; p21 forward 5′-[…]-3′, reverse 5′-[…]-3′; Bax forward 5′-[…]-3′, reverse 5′-[…]-3′; #-actin forward 5′-[…]-3′, reverse 5′-[…]-3′.

[4] = Representative effective dose for mouse studies (Table 15); assay type: in vivo; conditions: oral
Description: The PANDA Agent comprising a three and/or five valence arsenic is generally effective in treating cancer in a subject, including an animal, at a dose at a wide range of dosages by intravenous injection and oral administration. In certain embodiments, the daily dosage is from about 0.5 mg/kg to about 50 mg/kg, preferably from about 0.5 mg/kg to about 25 mg/kg, more preferably from about 1 mg/kg to about 25 mg/kg, more preferably from about 1 mg/kg to about 15 mg/kg, more preferably from about 1.7 mg/kg to about 15 mg/kg, and more preferably from about 1.7 mg/kg to about 5 mg/kg. In certain embodiments, the dose is about 5 mg/kg. In certain embodiments, the PANDA Agent ATO is administered by intravenous injection or by oral administration at 1 mg/ml concentration, at a dose of 5 mg/kg per day.
In other embodiments, the daily dosage is from about 10 mg/kg to about 1000 mg/kg, preferably from about 10 mg/kg to about 500 mg/kg, more preferably from about 20 mg/kg to about 500 mg/kg, more preferably from about 20 mg/kg to about 300 mg/kg, more preferably from about 33 mg/kg to about 300 mg/kg, and more preferably from about 33 mg/kg to about 100 mg/kg. In certain embodiments, the dose is about 100 mg/kg. In certain embodiments, the PANDA Agent As2S2, As2S3, As2S5, and As4S4 is administered by oral administration at 15 mg/L concentration, at a dose of 100 mg/kg
(§2) The PANDA Agent comprising a three valence and/or five valence antimony is generally effective in treating cancer in a subject, including an animal, at a dose at a wide range of dosages by intravenous injection and oral administration. In certain embodiments, dosage is from about 60 mg/kg to about 6000 mg/kg, preferably from about 60 mg/kg to about 3000 mg/kg, more preferably from about 120 mg/kg to about 3000 mg/kg, more preferably from about 120 mg/kg to about 1500 mg/kg, more preferably from about 150 mg/kg to about 1200 mg/kg, and more preferably from about 300 mg/kg to about 1200 mg/kg. In certain embodiments, the dose is about 600 mg/kg. In certain embodiments, the PANDA Agent is administered by intravenous or oral administration at 100 mg/ml concentration, at a dose of 600 mg/kg per day.
as §2, with “bismuth” for “antimony”, “embodiments, the daily” for “embodiments,”, “In certain embodiments, the dose is about 600 mg/kg. In certain embodiments, the PANDA Agent is administered by intravenous or oral administration at 100 mg/ml concentration, at a dose of 600 mg/kg per day.” left out

[5] = Representative effective dose in humans (Table 16); assay type: in vivo, human; conditions: oral
Source text: The PANDA Agent comprising a three and/or five valence arsenic is generally effective in treating cancer in a human at a wide range of dosages by intravenous injection and oral administration.
The PANDA Agent comprising a three and/or five valence antimony is generally effective in treating cancer in a human at a wide range of dosages by intravenous injection and oral administration. In certain embodiments, the effective dose results in a maximum Sb concentration in the patient's blood (plasma) from about 3.58 mg/L to about 357.5 mg/L, preferably from about 3.58 mg/L to about 179 mg/L, more preferably from about 7.15 mg/L to about 179 mg/L, more preferably from about 7.15 mg/L to about 107 mg/L, more preferably from about 12 mg/L to about 107 mg/L, more preferably from about 32.7 to about 38.8 mg/L. In certain embodiments, the daily dose is from about 20 mg/kg, wherein the maximum Sb concentration is from about 32.7 mg/L to about 38.8 mg/L, and wherein the platform Sb concentration in blood (plasma) is about 3.5 mg/L.
The PANDA Agent comprising a three and/or five valence bismuth is generally effective in treating cancer in a human at a wide range of dosages by intravenous injection and oral administration. In certain embodiments, the effective dose results in a maximum Bi concentration in the patient's blood (plasma) from about 3 mg/L to about 300 mg/L, preferably from about 3 mg/L to about 150 mg/L, more preferably from about 6 mg/L to about 150 mg/L, more preferably from about 6 mg/L to about 90 mg/L, more preferably from about 10 mg/L to about 90 mg/L, more preferably from about […]. In certain embodiments, the daily dose is from about 20 mg/kg, wherein the maximum Bi concentration is from about 32.7 mg/L to about 38.8 mg/L, and wherein the platform Bi concentration in blood (plasma) is about 3.5 mg/L.

APL patients = conditions: orally administrated; cited from earlier work
p53 = test: Inductively coupled plasma mass spectroscopy (ICP-MS), arsenic per p53; assay type: binding
Source text: We further discovered that elemental arsenic, elemental bismuth, elemental antimony, and compounds containing elemental arsenic, bismuth, and/or antimony are good rescue compounds for mp53. […] The arsenic-, bismuth-, and antimony-mediated mp53 rescue is achieved by binding of the released arsenic, bismuth, and antimony to mp53. […] The arsenic-, bismuth-, and antimony-mediated mp53 rescue also elevates mp53 Tm. […] Moreover, these rescue compounds can also rescue one or more mp53s.

[6] = presence vs absence of ATO, cell line not indicated

Row | Compound | Representative effective dose: Dose per day [4] | Maximun Metal concentration in blood (plasma) [5] | Platform Metal concentration in blood (plasma) [5] | Representative effective dose: Dose per day [5] | Str. Res (mp53 [1]) | 1620 TP (PAb1620 immunoprecipitation efficiency) (mp53 [1]) | Func. Res (mp53 [3]) | Luciferase Assay PUMA (mp53 [3]; [6]) | other results
1 | H179P |  |  |  |  |  |  |  |  | Str. Res. (whether the mp53 is structurally rescuable) (mp53 [1]): Yes; Res. (either structurally or functionally rescuable) (mp53 [2]): Yes; Func. Res. (whether the mp53 is functionally rescuable) (mp53 [3]): Yes
2 | S=[As]S[As]=S (centres unmarked) [As2S3] | 100 mg/kg | 0.57 to 1.31 mg/L | 0.03-0.07 L mg/L | 3.20 mg/kg |  |  |  |  | 
3 | R283H |  |  |  |  | Yes (can be rescured by the PANDA Agent ATO, as measured to a 1.5 fold or more increase in PAb1620 immunoprecipitation signal) | 1.6 fold | Yes (the PANDA Agent can rescue one or more of the mp53's wild type function to a 1.5 fold or more, as measured by luciferase assay, qPCR, or Western blot) | 1.6 fold | Str. Res. (whether the mp53 is structurally rescuable) (mp53 [1]): Yes; Res. (either structurally or functionally rescuable) (mp53 [2]): Yes; Func. Res. (whether the mp53 is functionally rescuable) (mp53 [3]): Yes
4 | D281H |  |  |  |  | Yes (can be rescured by the PANDA Agent ATO, as measured to a 1.5 fold or more increase in PAb1620 immunoprecipitation signal) | 2.1 fold | Yes (the PANDA Agent can rescue one or more of the mp53's wild type function to a 1.5 fold or more, as measured by luciferase assay, qPCR, or Western blot) | 2.2 fold | 
5 | S=[As](=S)S[As](=S)=S [As2S5] | 100 mg/kg |  |  | 4.05 mg/kg |  |  |  |  | 
6 | H179R |  |  |  |  | Yes (can be rescured by the PANDA Agent ATO, as measured to a 1.5 fold or more increase in PAb1620 immunoprecipitation signal) | 4.6 fold | Yes (the PANDA Agent can rescue one or more of the mp53's wild type function to a 1.5 fold or more, as measured by luciferase assay, qPCR, or Western blot) | 1.8 fold | Luciferase Assay CDKNIA (mp53 [3]; [6]): 1.0 fold
7 | S1[As]2S[As]3S[As]2S[As]13 [As4S4, reference compound] | 100 mg/kg | 0.57 to 1.31 mg/L | 0.03 to 0.07 mg/L | 2.80 mg/kg |  |  |  |  | efficacy in treating APL patients (in words) (APL patients): as effective as conventional intravenous ATO
8 | [AsH3] [arsenic] |  |  |  |  |  |  |  |  | arsenic bound per p53 (ICP-MS) (p53): 0.93±0.19 arsenic per p53
9 | S=[As][As]=S (centres unmarked) [As2S2] | 100 mg/kg | 0.57 to 1.31 mg/L | 0.03 to 0.07 mg/L | 2.80 mg/kg |  |  |  |  | 
